Measured values taken from patent publication US8952162B2, “Triazolopyridines as phosphodiesterase inhibitors for treatment of dermal diseases” (Leo Pharma A/S, priority 2008, dated 2015).

Molecular target: Human recombinant PDE4 (Genbank accession no NM—006203) (Homo sapiens, UniProt Q08499)
Test: PDE4 assay (SPA, cAMP cleavage)
Format: biochemical
Conditions: Example 53; PDE4 assay as in example 52; read-out: PDE4 IC50 range
Experimental: At the end of the incubation, the cleavage of the substrate was evaluated by the binding of the AMP product to SPA beads, which generate chemoluminescence when bound to the radioactive tracer. The AMP product inhibited the binding of the radioactive tracer to the beads, and the luminescent signal was competed.

Human recombinant PDE4 (Genbank accession no NM—006203), sequence (Q08499 1-673 isoform Q08499-2): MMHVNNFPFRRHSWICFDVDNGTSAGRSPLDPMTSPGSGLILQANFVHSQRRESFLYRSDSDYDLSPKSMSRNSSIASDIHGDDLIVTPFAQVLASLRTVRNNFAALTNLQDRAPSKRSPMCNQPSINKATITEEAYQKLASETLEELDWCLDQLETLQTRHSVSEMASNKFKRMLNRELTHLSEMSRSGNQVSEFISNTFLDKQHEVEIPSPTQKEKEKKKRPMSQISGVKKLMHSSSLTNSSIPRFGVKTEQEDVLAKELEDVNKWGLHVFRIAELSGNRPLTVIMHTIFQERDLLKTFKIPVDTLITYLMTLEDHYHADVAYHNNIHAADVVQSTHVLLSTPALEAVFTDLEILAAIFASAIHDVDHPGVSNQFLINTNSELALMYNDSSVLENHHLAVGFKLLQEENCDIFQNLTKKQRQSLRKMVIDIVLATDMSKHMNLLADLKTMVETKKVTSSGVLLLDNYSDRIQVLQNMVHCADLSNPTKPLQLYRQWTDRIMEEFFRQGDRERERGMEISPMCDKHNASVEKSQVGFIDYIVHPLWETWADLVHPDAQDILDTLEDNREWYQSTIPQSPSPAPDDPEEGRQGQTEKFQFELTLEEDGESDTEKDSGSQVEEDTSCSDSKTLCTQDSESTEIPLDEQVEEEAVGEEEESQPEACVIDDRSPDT

SMILES	IC50
CCOC(=O)C1(c2nc3c(OC)ccc(-c4cccc(C#N)c4)n3n2)CC1 [Compound 188, 1-[5-(3-Cyano-phenyl)-8-methoxy-[1,2,4]triazolo[1,5-a]pyridin-2-yl]-cyclopropanecarboxylic acid ethyl ester]	< 500 nM
CCOC(=O)C1(c2nc3c(OC)ccc(-c4cccc(C(C)=O)c4)n3n2)CC1 [Compound 190, 1-[5-(3-Acetyl-phenyl)-8-methoxy-[1,2,4]triazolo[1,5-a]pyridin-2-yl]-cyclopropanecarboxylic acid ethyl ester]	< 500 nM
COc1ccc(-c2cccc(C(C)=O)c2)n2nc(C3(C(=O)O)CC3)nc12 [Compound 193, 1-[5-(3-Acetyl-phenyl)-8-methoxyl-[1,2,4]triazolo[1,5-a]pyridin-2-yl]-cyclopropanecarboxylic acid]	> 1000 nM
COc1ccc(-c2cccc(C#N)c2)n2nc(C3(C(=O)NC(C)C)CC3)nc12 [Compound 194, 1-[5-(3-Cyano-phenyl)-8-methoxyl-[1,2,4]triazolo[1,5-a]pyridin-2-yl]-cyclopropanecarboxylic acid isopropylamide]	< 500 nM
COc1ccc(-c2cccc(C#N)c2)n2nc(C3(C(=O)NCc4cccnc4)CC3)nc12 [Compound 195, 1-[5-(3-Cyano-phenyl)-8-methoxy-[1,2,4]triazolo[1,5-a]pyridin-2-yl]-cyclopropanecarboxylic acid (pyridin-3-ylmethyl)-amide]	< 500 nM
COc1ccc(-c2cccc(C#N)c2)n2nc(C3(C(=O)N4CCOCC4)CC3)nc12 [Compound 196, 3-{8-Methoxy-2-[1-(morpholine-4-carbonyl)-cyclopropyl]-[1,2,4]triazolo-[1,5-a]pyridin-5-yl}-benzonitrile]	500 to 1000 nM
COc1ccc(-c2cccc(C#N)c2)n2nc(C3(C(=O)NCc4ccccc4)CC3)nc12 [Compound 197, 1-[5-(3-Cyano-phenyl)-8-methoxyl-[1,2,4]triazolo[1,5-a]pyridin-2-yl]-cyclopropanecarboxylic acid benzylamide]	< 500 nM
COc1ccc(-c2cccc(C#N)c2)n2nc(C3(C(=O)NCCS(N)(=O)=O)CC3)nc12 [Compound 198, 1-[5-(3-Cyano-phenyl)-8-methoxyl-[1,2,4]triazolo[1,5-a]pyridin-2-yl]-cyclopropanecarboxylic acid (2-sulfamoyl-ethyl)-amide]	< 500 nM
COc1ccc(-c2cccc(C#N)c2)n2nc(C3(C(=O)NCCS(C)(=O)=O)CC3)nc12 [Compound 199, 1-[5-(3-Cyano-phenyl)-8-methoxy-[1,2,4]triazolo[1,5-a]pyridin-2-yl]-cyclopropanecarboxylic acid (2-methanesulfonyl-ethyl)-amide]	< 500 nM
COc1ccc(-c2cccc(C#N)c2)n2nc(C3(C(=O)N4CCCC4)CC3)nc12 [Compound 200, 3-{8-Methoxy-2-[1-(pyrrolidine-1-carbonyl)-cyclopropyl]-[1,2,4]triazolo[1,5-a]pyridin-5-yl}-benzonitrile]	500 to 1000 nM
C=C(C)C(=O)OCCNC(=O)C1(c2nc3c(OC)ccc(-c4cccc(C#N)c4)n3n2)CC1 [Compound 201, 2-Methyl-acrylic acid 2-({1-[5-(3-cyano-phenyl)-8-methoxy-[1,2,4]triazolo[1,5-a]pyridin-2-yl]-cyclopropanecarbonyl}-amino)-ethyl ester]	< 500 nM
COCCNC(=O)C1(c2nc3c(OC)ccc(-c4cccc(C#N)c4)n3n2)CC1 [Compound 202, 1-[5-(3-Cyano-phenyl)-8-methoxy-[1,2,4]triazolo[1,5-a]pyridin-2-yl]-cyclopropanecarboxylic acid (2-methoxy-ethyl)-amide]	< 500 nM
COc1ccc(-c2ccc(C#N)cc2)n2nc(C3(C(=O)NCc4cccnc4)CC3)nc12 [Compound 203, 1-[5-(4-Cyano-phenyl)-8-methoxy-[1,2,4]triazolo[1,5-a]pyridin-2-yl]-cyclopropanecarboxylic acid (pyridin-3-ylmethyl)-amide]	< 500 nM
COc1ccc(-c2ccc(C#N)cc2)n2nc(C3(C(=O)N4CCN(C)CC4)CC3)nc12 [Compound 204, 4-{8-Methoxy-2-[1-(4-methyl-piperazine-1-carbonyl)-cyclopropyl]-[1,2,4]triazolo[1,5-a]pyridin-5-yl}-benzonitrile]	> 1000 nM
COc1ccc(-c2ccc(C#N)cc2)n2nc(C3(C(=O)N4CCOCC4)CC3)nc12 [Compound 205, 4-{8-Methoxy-2-[1-(morpholine-4-carbonyl)-cyclopropyl]-[1,2,4]triazolo[1,5-a]pyridin-5-yl}-benzonitrile]	> 1000 nM
COc1ccc(-c2ccc(C#N)cc2)n2nc(C3(C(=O)NCc4ccccc4)CC3)nc12 [Compound 206, 1-[5-(4-Cyano-phenyl)-8-methoxy-[1,2,4]triazolo[1,5-a]pyridin-2-yl]-cyclopropanecarboxylic acid benzylamide]	< 500 nM
COc1ccc(-c2ccc(C#N)cc2)n2nc(C3(C(=O)NCCS(N)(=O)=O)CC3)nc12 [Compound 207, 1-[5-(4-Cyano-phenyl)-8-methoxy-[1,2,4]triazolo[1,5-a]pyridin-2-yl]-cyclopropanecarboxylic acid (2-sulfamoyl-ethyl)-amide]	< 500 nM
COc1ccc(-c2ccc(C#N)cc2)n2nc(C3(C(=O)NCCS(C)(=O)=O)CC3)nc12 [Compound 208, 1-[5-(4-Cyano-phenyl)-8-methoxy-[1,2,4]triazolo[1,5-a]pyridin-2-yl]-cyclopropanecarboxylic acid (2-methanesulfonyl-ethyl)-amide]	< 500 nM
COc1ccc(-c2ccc(C#N)cc2)n2nc(C3(C(=O)NC(C)C)CC3)nc12 [Compound 209, 1-[5-(4-Cyano-phenyl)-8-methoxy-[1,2,4]triazolo[1,5-a]pyridin-2-yl]-cyclopropanecarboxylic acid isopropylamide]	< 500 nM
CNC(=O)C1(c2nc3c(OC)ccc(-c4ccc(C#N)cc4)n3n2)CC1 [Compound 210, 1-[5-(4-Cyano-phenyl)-8-methoxy-[1,2,4]triazolo[1,5-a]pyridin-2-yl]-cyclopropanecarboxylic acid methylamide]	< 500 nM
CCNC(=O)C1(c2nc3c(OC)ccc(-c4ccc(C#N)cc4)n3n2)CC1 [Compound 211, 1-[5-(4-Cyano-phenyl)-8-methoxy-[1,2,4]triazolo[1,5-a]pyridin-2-yl]-cyclopropanecarboxylic acid ethylamide]	< 500 nM
CCCNC(=O)C1(c2nc3c(OC)ccc(-c4ccc(C#N)cc4)n3n2)CC1 [Compound 212, 1-[5-(4-Cyano-phenyl)-8-methoxy-[1,2,4]triazolo[1,5-a]pyridin-2-yl]-cyclopropanecarboxylic acid propylamide]	< 500 nM
COc1ccc(-c2ccc(C#N)cc2)n2nc(C3(C(=O)NC4CC4)CC3)nc12 [Compound 213, 1-[5-(4-Cyano-phenyl)-8-methoxy-[1,2,4]triazolo[1,5-a]pyridin-2-yl]-cyclopropanecarboxylic acid cyclopropylamide]	< 500 nM
COc1ccc(-c2ccc(C#N)cc2)n2nc(C3(C(=O)NCC(C)C)CC3)nc12 [Compound 214, 1-[5-(4-Cyano-phenyl)-8-methoxy-[1,2,4]triazolo[1,5-a]pyridin-2-yl]-cyclopropanecarboxylic acid isobutyl-amide]	< 500 nM
